From ChEMBL document CHEMBL5212743, “Selectivity Literature for EUbOPEN Chemogenomics Library wave 3” (2023) come the findings set out here.

In assay [1] the target is Bromodomain adjacent to zinc finger domain protein 2A (Homo sapiens) (UniProt Q9UIF9).
The target in assay [2] is Sodium channel protein type 2 subunit alpha (Homo sapiens, UniProt Q99250). As to the kind of experiment: Selectivity interaction (CEREP panel (receptors, ion chanels, radiometric assay)) EUB0000192d SCN2A.
For assay [3], the target named is Chromatin remodeling regulator CECR2 (Homo sapiens, UniProt Q9BXF3).
Chain of Chromatin remodeling regulator CECR2 (Q9BXF3 whole entry, looked up): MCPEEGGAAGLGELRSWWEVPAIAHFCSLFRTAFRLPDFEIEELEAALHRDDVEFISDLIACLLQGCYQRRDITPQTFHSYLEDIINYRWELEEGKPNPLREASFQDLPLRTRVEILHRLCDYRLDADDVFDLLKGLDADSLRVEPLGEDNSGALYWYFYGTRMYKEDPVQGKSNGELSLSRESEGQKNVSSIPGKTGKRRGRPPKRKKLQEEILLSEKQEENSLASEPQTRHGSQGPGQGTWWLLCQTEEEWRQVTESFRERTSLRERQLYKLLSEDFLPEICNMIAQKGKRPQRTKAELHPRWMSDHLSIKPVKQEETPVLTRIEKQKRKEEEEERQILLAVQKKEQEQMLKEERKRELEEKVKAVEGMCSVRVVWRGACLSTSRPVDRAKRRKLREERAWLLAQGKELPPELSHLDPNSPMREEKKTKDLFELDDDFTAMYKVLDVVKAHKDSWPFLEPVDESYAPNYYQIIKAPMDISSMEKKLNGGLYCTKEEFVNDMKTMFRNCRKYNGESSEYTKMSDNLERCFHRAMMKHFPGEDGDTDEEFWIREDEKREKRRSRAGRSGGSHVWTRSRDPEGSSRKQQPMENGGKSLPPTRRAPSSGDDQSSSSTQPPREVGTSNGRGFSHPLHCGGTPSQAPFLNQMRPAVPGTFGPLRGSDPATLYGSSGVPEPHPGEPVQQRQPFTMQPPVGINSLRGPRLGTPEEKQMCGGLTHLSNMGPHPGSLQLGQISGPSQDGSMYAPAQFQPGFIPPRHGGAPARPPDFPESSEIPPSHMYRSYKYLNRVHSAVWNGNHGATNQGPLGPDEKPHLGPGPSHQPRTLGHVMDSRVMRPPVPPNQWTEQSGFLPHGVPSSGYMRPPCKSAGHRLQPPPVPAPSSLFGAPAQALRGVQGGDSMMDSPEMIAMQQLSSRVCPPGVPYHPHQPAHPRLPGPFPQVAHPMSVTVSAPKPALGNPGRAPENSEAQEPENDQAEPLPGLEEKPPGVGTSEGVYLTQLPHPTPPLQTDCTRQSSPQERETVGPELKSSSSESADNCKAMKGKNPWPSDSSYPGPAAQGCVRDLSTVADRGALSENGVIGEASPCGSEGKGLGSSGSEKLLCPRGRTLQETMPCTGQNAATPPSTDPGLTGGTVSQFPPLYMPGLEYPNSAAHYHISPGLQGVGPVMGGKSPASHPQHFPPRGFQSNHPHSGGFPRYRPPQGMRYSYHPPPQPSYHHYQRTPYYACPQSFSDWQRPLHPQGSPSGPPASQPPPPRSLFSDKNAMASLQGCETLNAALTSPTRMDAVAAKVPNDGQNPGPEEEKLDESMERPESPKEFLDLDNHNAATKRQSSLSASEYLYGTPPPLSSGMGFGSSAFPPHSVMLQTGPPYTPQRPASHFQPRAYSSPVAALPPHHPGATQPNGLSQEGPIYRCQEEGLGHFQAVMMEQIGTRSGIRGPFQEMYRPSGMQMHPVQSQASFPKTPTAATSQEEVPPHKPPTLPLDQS
For assay [4], the target named is Tyrosine-protein kinase Lyn (Homo sapiens, UniProt P07948). Kind of assay: Selectivity interaction (NanoBRET assay (HEK293T cells)) EUB0000713a LYN. Background: In BRET a luciferase serves as donor, and the signal depends on an acceptor being close.
For assay [5], the target named is Mitogen-activated protein kinase 14 (Homo sapiens, UniProt Q16539). Kind of assay: Selectivity interaction (KinomeScan (DiscoverX)) EUB0000713a MAPK14. As to conditions: at 100 nM.
Chain of Mitogen-activated protein kinase 14 (Q16539 whole entry): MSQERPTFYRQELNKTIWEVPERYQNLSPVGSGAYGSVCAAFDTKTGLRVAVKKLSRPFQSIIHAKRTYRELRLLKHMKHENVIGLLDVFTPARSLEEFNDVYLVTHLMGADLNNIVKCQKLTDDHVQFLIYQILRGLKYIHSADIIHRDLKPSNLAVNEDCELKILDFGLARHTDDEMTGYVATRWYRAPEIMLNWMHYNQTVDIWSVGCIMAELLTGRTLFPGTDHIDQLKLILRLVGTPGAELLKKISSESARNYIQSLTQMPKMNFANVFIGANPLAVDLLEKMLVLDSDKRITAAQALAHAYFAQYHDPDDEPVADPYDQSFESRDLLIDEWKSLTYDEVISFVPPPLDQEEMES
The target in assay [6] is T1, Ephrin type-B receptor 6 (Homo sapiens) (UniProt O15197).
T1 sequence (whole entry): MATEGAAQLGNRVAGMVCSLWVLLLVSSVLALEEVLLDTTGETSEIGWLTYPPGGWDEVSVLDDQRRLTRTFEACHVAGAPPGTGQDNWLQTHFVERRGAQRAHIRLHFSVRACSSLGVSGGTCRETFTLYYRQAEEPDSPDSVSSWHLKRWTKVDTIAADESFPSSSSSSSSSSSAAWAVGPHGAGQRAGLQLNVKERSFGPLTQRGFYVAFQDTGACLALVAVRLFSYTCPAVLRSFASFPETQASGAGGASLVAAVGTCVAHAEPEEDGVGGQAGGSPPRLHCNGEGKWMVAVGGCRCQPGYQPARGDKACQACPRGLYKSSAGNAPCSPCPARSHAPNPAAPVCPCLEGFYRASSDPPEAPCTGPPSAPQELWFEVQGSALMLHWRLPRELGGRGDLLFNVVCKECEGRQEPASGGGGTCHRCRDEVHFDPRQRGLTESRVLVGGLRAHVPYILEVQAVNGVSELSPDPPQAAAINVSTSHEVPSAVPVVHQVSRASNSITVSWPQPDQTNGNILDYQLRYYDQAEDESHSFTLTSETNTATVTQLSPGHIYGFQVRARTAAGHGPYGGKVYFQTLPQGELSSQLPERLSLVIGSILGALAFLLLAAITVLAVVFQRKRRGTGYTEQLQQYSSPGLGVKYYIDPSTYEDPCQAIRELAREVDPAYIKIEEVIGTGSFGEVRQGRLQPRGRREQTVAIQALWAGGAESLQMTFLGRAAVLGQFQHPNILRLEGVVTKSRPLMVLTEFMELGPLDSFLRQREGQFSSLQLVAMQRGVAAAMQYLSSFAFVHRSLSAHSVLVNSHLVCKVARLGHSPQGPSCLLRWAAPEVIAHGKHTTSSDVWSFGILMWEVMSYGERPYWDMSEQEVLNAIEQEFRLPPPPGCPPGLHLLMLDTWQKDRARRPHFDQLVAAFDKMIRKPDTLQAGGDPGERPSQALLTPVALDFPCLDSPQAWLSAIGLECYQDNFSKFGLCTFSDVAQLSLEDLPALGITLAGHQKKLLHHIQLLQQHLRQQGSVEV
Kind of assay: Selectivity interaction (KinomeScan (DiscoverX)) EUB0000713a EPHB6. As to conditions: at 100 nM.

For assay [7], the target named is Serine/threonine-protein kinase 10 (Homo sapiens) (UniProt O94804). As to the kind of experiment: Selectivity interaction (KinomeScan (DiscoverX)) EUB0000713a STK10. As to conditions: at 100 nM.
Chain of Serine/threonine-protein kinase 10 (Homo sapiens) (O94804 whole entry, looked up): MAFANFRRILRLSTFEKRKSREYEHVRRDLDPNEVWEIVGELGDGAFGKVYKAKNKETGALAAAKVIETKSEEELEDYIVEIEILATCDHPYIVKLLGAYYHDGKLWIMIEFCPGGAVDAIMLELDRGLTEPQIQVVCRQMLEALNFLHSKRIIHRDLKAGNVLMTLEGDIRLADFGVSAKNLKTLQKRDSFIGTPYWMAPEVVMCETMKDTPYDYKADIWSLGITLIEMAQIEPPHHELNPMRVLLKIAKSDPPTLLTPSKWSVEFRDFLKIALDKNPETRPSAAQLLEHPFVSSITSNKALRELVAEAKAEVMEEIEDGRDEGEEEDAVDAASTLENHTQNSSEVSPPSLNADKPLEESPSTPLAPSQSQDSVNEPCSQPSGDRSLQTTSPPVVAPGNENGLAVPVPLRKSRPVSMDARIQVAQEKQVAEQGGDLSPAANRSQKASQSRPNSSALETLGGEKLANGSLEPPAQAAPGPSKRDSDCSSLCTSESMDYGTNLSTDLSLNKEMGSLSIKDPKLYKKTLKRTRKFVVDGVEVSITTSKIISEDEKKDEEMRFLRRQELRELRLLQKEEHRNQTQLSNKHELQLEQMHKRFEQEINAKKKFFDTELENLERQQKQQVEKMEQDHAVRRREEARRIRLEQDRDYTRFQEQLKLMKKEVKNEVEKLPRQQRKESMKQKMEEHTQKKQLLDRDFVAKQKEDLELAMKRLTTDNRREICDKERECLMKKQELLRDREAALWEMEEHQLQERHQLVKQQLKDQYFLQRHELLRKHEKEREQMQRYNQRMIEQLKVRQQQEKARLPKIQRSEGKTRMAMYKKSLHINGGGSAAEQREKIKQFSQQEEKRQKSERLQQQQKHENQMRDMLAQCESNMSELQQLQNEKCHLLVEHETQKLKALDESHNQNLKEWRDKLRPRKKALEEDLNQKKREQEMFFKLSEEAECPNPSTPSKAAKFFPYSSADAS
The target of assay [8] is T2, Gamma-aminobutyric acid receptor subunit alpha-1 (Homo sapiens, UniProt P14867).
T2 sequence (P14867 whole entry): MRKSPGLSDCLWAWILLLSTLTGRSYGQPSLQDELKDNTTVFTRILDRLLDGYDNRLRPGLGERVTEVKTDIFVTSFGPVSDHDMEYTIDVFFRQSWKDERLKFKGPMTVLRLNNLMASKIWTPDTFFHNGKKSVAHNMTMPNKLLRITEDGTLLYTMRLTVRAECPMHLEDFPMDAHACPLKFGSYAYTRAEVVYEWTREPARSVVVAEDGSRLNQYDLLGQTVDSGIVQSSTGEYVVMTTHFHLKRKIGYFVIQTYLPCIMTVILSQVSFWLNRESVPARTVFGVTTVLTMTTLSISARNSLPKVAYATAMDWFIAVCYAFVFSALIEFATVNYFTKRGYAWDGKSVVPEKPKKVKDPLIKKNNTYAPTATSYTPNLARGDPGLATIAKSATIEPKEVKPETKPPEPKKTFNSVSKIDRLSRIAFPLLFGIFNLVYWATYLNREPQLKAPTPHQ
As to the kind of experiment: Selectivity interaction (GPCR panel (PDSP screen)) EUB0000713a GABRA1.

Assay [9] deals with Serine/threonine-protein kinase PAK 3 (Homo sapiens, UniProt O75914). As to the kind of experiment: Selectivity interaction (KinomeScan (DiscoverX)) EUB0000713a PAK3. The following applies: at 100 nM.
Chain of Serine/threonine-protein kinase PAK 3 (O75914 whole entry, looked up): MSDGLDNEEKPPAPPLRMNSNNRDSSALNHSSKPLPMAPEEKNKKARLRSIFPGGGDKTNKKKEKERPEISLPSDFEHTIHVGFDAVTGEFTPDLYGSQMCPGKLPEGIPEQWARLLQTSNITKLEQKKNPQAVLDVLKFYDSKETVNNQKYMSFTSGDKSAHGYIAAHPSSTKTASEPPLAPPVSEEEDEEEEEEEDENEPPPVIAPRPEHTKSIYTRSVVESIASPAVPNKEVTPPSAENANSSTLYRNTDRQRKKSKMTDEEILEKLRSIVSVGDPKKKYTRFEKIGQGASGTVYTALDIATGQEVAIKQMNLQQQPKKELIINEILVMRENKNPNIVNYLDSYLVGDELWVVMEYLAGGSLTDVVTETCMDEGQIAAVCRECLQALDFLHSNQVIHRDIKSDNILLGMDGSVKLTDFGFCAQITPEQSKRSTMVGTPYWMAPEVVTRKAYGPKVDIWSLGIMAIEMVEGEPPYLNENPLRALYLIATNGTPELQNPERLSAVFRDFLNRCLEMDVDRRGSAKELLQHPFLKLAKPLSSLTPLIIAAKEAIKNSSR
Assay [10] has as its target Bromodomain-containing protein 1 (Homo sapiens, UniProt O95696). As to the kind of experiment: Selectivity interaction (BROMOscan™ panel (DiscoverX)) EUB0000256b BRD1.
In assay [11] the target is Bromodomain-containing protein 9 (Homo sapiens, UniProt Q9H8M2). Kind of assay: Selectivity interaction (BROMOscan™ panel (DiscoverX)) EUB0000256b BRD9.
A further assay concerns the target Acetylcholinesterase (Homo sapiens, UniProt P22303). Kind of assay: Selectivity interaction (Internal GSK panel (receptors, ion channels and other enzymes )) EUB0000256b ACHE.
For assay [12], the target named is Histone acetyltransferase KAT2B (Homo sapiens, UniProt Q92831). As to the kind of experiment: Selectivity interaction (TR-FRET assay) EUB0000256b KAT2B. Background: Time-resolved FRET reads energy transfer from a long-lived donor to a nearby acceptor.
The next assay addresses Peregrin (Homo sapiens, UniProt P55201). As to the kind of experiment: Selectivity interaction (BROMOscan™ panel (DiscoverX)) EUB0000256b BRPF1.
The target in assay [13] is Bromodomain-containing protein 7 (Homo sapiens, UniProt Q9NPI1). Kind of assay: Selectivity interaction (BROMOscan™ panel (DiscoverX)) EUB0000256b BRD7.
The target in assay [14] is Bromodomain adjacent to zinc finger domain protein 2B (Homo sapiens, UniProt Q9UIF8). As to the kind of experiment: Selectivity interaction (BROMOscan™ panel (DiscoverX)) EUB0000256b BAZ2B.
Assay [15] addresses Mitogen-activated protein kinase 8 (Homo sapiens, UniProt P45983). Kind of assay: Selectivity interaction (ActivX KiNative profiling assay (in HCT-116 cell line (CRL-1619))) EUB0000642a MAPK8.
Assay [16] deals with Dual specificity tyrosine-phosphorylation-regulated kinase 1A (Homo sapiens, UniProt Q13627). Kind of assay: Selectivity interaction (KinomeScan (Invitrogen)) EUB0000642a DYRK1A. As to conditions: at 3 µM.
In assay [17] the target is Phosphatidylinositol 5-phosphate 4-kinase type-2 gamma (Homo sapiens, UniProt Q8TBX8). Kind of assay: Selectivity interaction (ActivX KiNative profiling assay (in HCT-116 cell line (CRL-1619))) EUB0000642a PIP4K2C.
Assay [18] has as its target Mitogen-activated protein kinase 9 (Homo sapiens, UniProt P45984). Kind of assay: Selectivity interaction (ActivX KiNative profiling assay (in HCT-116 cell line (CRL-1619))) EUB0000642a MAPK9.
Assay [19] addresses Phosphorylase b kinase gamma catalytic chain, skeletal muscle/heart isoform (Homo sapiens) (UniProt Q16816). Kind of assay: Selectivity interaction (KinomeScan ([…])) EUB0000642a PHKG1. As to conditions: at 3 µM.
The target in assay [20] is Mitogen-activated protein kinase 10 (Homo sapiens, UniProt P53779). As to the kind of experiment: Selectivity interaction (ActivX KiNative profiling assay (in HCT-116 cell line (CRL-1619))) EUB0000642a MAPK10.
The target of assay [21] is Dual specificity tyrosine-phosphorylation-regulated kinase 3 (Homo sapiens) (UniProt O43781). As to the kind of experiment: Selectivity interaction (KinomeScan ([…])) EUB0000642a DYRK3. The following applies: at 3 µM.
The target in assay [22] is Dual specificity protein kinase CLK1 (Homo sapiens, UniProt P49759). The following applies: at 3 µM.
Chain of Dual specificity protein kinase CLK1 (P49759 whole entry, looked up): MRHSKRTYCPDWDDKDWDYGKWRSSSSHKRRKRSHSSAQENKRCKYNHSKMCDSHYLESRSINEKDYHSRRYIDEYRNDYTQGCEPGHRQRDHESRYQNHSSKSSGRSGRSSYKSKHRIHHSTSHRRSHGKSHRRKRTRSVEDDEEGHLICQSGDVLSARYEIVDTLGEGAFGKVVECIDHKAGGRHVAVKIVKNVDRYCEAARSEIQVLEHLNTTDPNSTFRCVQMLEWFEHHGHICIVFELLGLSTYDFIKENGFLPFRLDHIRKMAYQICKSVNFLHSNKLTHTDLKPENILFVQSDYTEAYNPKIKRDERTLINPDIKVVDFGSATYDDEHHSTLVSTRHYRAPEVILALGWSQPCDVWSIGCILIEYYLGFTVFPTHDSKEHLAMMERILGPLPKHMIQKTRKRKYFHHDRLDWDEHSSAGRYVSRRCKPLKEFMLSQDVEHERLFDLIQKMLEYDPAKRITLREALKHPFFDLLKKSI
Assay [23] concerns the target Dual specificity tyrosine-phosphorylation-regulated kinase 1B (Homo sapiens, UniProt Q9Y463). Kind of assay: Selectivity interaction (KinomeScan ([…])) EUB0000642a DYRK1B. The following applies: at 3 µM.

Molecules are shown by their SMILES.

Chain of Bromodomain-containing protein 1 (O95696 whole entry): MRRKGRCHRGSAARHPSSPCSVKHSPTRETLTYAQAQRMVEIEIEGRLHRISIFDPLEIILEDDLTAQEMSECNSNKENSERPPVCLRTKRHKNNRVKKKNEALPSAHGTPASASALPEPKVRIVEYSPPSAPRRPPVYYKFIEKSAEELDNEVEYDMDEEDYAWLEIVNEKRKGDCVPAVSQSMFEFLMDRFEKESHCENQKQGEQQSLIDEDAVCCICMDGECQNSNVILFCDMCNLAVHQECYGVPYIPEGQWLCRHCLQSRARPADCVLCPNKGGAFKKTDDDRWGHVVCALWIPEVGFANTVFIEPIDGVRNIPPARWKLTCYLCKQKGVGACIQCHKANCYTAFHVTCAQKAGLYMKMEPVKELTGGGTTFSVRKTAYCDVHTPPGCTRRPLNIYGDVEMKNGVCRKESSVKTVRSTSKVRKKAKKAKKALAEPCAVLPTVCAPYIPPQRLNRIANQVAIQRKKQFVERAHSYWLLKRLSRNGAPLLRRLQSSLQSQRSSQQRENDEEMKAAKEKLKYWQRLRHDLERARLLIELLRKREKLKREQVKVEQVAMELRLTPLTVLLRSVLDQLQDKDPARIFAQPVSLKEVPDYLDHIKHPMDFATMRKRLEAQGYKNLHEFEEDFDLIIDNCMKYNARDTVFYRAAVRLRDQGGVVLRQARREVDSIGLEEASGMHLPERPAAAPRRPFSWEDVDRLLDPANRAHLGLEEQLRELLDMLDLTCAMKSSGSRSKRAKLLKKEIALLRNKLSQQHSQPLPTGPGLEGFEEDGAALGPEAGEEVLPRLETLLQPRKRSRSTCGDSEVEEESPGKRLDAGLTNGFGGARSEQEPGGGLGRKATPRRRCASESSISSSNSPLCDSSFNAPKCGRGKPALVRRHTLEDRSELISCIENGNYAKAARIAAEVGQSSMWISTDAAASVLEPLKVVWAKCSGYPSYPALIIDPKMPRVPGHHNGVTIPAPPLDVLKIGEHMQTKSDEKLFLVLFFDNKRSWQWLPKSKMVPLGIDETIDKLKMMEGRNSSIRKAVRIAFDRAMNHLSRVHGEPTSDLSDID

Turning to `Cn1cc(CCn2cnc(-c3cnn(C)c3)c2-c2ccc(C#N)cc2)cn1`, the dTm in assay [1] was 5.2 K; in assay [3], 2 K. The midpoint of inhibition in assay [2], the IC50, lay at 6600 nM.

As for `Cc1cc(C)c(-n2ccn3nc(-c4cccnc4)cc23)cc1NC(=O)c1cc(C#N)cc(S(F)(F)(F)(F)F)c1` [BAY-826], the EC50 in assay [4] is 7400 nM. Also, the % of control in assay [5] was found to be 0%; in [6], 3%; in assay [7], 1.8%; in [9], 26.1%. In assay [8], this compound displayed a Ki of 217 nM.

For `CN1C[C@H](Nc2cnn(C)c(=O)c2Br)C[C@H](c2ccccc2)C1`, the inhibition constant Ki was 110 nM in assay [10]; 1400 nM in assay [11]; 140 nM at Peregrin; 1500 nM in assay [13]; 840 nM in assay [14]. The XC50 at Acetylcholinesterase amounted to 3200 nM. This compound had a concentration for half-maximal inhibition (IC50) in [12] of 40 nM.

Regarding `CNC(=O)c1ccc(Nc2nc(OC3CCCC3)c3c(-c4ccc5nc(C)oc5c4)c[nH]c3n2)c(OC)c1`, the IC50 in assay [15] is 680 nM; in [17], 1300 nM; in assay [18], 680 nM; in assay [20] it was 680 nM. The % of inhibition in [16] was 94%; in assay [19], 96%; in assay [21], 95%; in [22], 99%; in [23], 98%.

One may read the IC50 as the concentration at which inhibition is half-maximal. Low values mean greater potency in that assay, high ones weaker potency in that assay. As usually defined, the EC50 is the concentration that produces a half-maximal response. A high value points to lower potency in that assay. The Ki is a measure of affinity in units of concentration, obtained from inhibition or displacement. Low values mean tighter binding, high ones weaker binding.
